Assay results as given in patent US8507506B2, “Theophylline derivative inhibits osteoporosis” (Kaohsiung Medical University, priority 2011, dated 2013).

Key:
Type in all cases: cell-based
[1] = tested on: Akt phosphorylation in RAW264.7 cells; test: Western blot, phosphorylation of Akt induced by RANKL; conditions: 10 ng/ml RANKL for 30 minutes, dose dependent, FIG. 17
Procedure: RANKL can activate PI3K/Akt pathway to maintain the existence and the proliferation of osteoclast-like cells and prevent the apoptosis. The Akt phosphorylation level which is induced by RANKL is examined at different time points. The induced Akt phosphorylation is most apparent when it is induced by 10 ng/ml RANKL for 30 minutes. Therefore, 30 minutes are used to be the time point for inducing Akt phosphoryaltion. […] The proteins were collected by scraping and were centrifuged (13,000 rpm, 4° C., 30 minutes). The supernatant was stored in an eppendorf in −80° C. • c) Concentrations of the proteins were examined by Bio-Red DC Protein Assay. After knowing the concentrations, the proteins were diluted to specific concentrations by adding ddH2O. One forth volume of the diluted proteins of sample buffer was added into the diluted proteins and was put in boiled water for 5 min and then was chilled on ice for 5 minutes. After short time centrifugation, the diluted proteins could be injected into wells of a gel. The gel was run at 100 V for 10 minutes until the proteins were driven to the intersection between a loading gel and a running gel. Then, the voltage was swopped to 200 V for 40 minutes. • d) A PVDF membrane was immersed in Methanol for 2 minutes. After two washes in ddH2O, the membrane was immersed in transfer buffer for 15 minutes. […]

[2] = tested on: MMP-2 enzyme activity of RAW264.7 cells; test: Gelatin zymography, enzyme activity of MMP-2 induced by RANKL; conditions: 10 μM, RANKL 24 hours, FIG. 20
Procedure: KMUP-1 influences there major up-stream signal transduction pathways which are related to RANK/RANKL. Western blot is used to estimate the amount of matrix metalloproteinase (MMP)-2 and MMP-9 which are related to the dissolution of osteoclast-like cells, and the enzyme activity of MMP-2 and MMP-9 are estimated via Gelatin Zymography. […] After 24 hours reaction, the reaction fluid was centrifuged (13,000 rpm, 4° C., 20 minutes), and then the supernatant was stored in −80° C. • b) 10% gel preparation. 10 mg gelatin was added by 1 ml ddH2O and then was heated in water bath until the solution was clear. • c) Concentrations of the proteins were examined by Bio-Red DC Protein Assay. After knowing the concentrations, the proteins were diluted to specific concentrations by adding ddH2O. One forth volume of the diluted proteins of sample buffer was added into the diluted proteins. After shaking, the diluted proteins could be added into wells of the gel. Subsequently, 1× running buffer was added with the gel, and then the gel was run at 100 V for 10 minutes until the proteins were driven to the intersection between a loading gel and a running gel. Then, the voltage was swopped to 200 V for 60 minutes. • d) After electrophoresis, the loading gel was discarded, and the left gel was washed by TritonX-100 buffer for 30 minutes in room temperature twice. […]

HMGB1 in RAW264.7 cells = test: Western blot, RANKL-induced transfer of HMGB1 from nucleus to extracellular space; conditions: 5 μM, 7.5 μM and 10 μM for 24 hours, 10 ng/ml RANKL 18 hours, dose dependent, FIGS. 22(B), 23(B), 24(B)
Procedure: HMGB1 can affect the proliferation and differentiation of osteoclasts, the HMGB1 which originally exists in a cell nuclear is stimulated by RANKL to transfer to cytoplasm or extracellular space, and the HMGB1 in the extracellular space like pro-inflammatory cytokines can regulate the proliferation and differentiation of osteoclasts via RANK/RANKL pathway or other pathways. 10 ng/ml RANKL is used to stimulate RAW264.7 cells, and the extracellular medium, cytoplasm and nucleus are separated at 0 hours, 6 hours, 12 hours, 18 hours and 24 hours, and then via western blot to confirm the expression level of the HMGB1. After stimulating 24 hours, the HMGB1 obviously transfers to the extracellular space from the nucleus and the cytoplasm (FIGS. 22(A), 23(A), and 24(A)). Moreover, when it is stimulated by RANKL for 18 hours, the effect of transferring to the extracellular space and the cytoplasm is most obvious. Different concentrations of KMUP-1 are administrated for 24 hours, and 10 ng/ml RANKL is used to stimulate for 18 hours. […] Nuclear proteins were extracted according to the instructions of NE-PER kit. 2.5×10^6 cells were plated per well in 24-well plates. […] Subsequently, the cells were added by 5.5 μ[…] and shaken for 5 seconds and then put on ice for 1 minute. After that, the cells were shaken again for 5 seconds and centrifuged (10,000 rpm, 4° C., 5 minutes). […]

## Cn1c(=O)c2c(ncn2CCN2CCN(c3ccccc3Cl)CC2)n(C)c1=O [KMUP-1, 7-[2-[4-(2-Chlorophenyl)piperazin-1-yl]ethyl] theophylline]
[1]
  phosphorylation of Akt induced by RANKL: can efficiently inhibit phosphorylation of Akt induced by RANKL
[2]
  enzyme activity of MMP-2 induced by RANKL: can reduce the enzyme activity of MMP-2 and MMP-9
HMGB1 in RAW264.7 cells
  RANKL-induced transfer of HMGB1 to extracellular space from cell nucleus: can inhibit that RANKL induces HMGB1 to transfer to extracellular space from a cell nuclear
